Key:
[1] = tested on: TM m-RNA expression in HUVECs; test: TM mRNA expression in HUVECs by Northern blot, time course; assay type: cell-based, human; details: 10^-5 M, incubated for the indicated time, FIG. 2
Method: HUVECs were plated in HuMedia-EG2 medium (Kurabo Inc.) to which 2% (vol/vol) fetal bovine serum, 50 μg/ml gentamicin, 50 ng/ml amphotericin B, 10 ng/ml hEGF, 5 ng/ml hFGF-B, 1 μg/ml hydrocortisone and 10 μg/ml heparin were added. Subsequently, pitavastatin (at a final concentration of 10^−5 M) was added to the medium, and incubated for the indicated time with 5% CO2 at 37° C. Total RNA was extracted by using TRIZOL reagent (Life Technologies, Inc.) and the levels of TM m-RNA expression were measured by the Northern blot method, which is a usual method.

[2] = tested on: thrombomodulin (TM) antigen in normal human umbilical vein endothelial cells (HUVECs); test: TM antigen level in HUVECs by enzyme immunoassay after 24 h incubation with statin; assay type: cell-based; details: 10^-7 M to 10^-3 M, control (0.01% DMSO) = 100%, FIG. 1
Method: Normal human umbilical vein endothelial cells (HUVECs) were plated at a density of 2×10^5 cells/ well in a 24-well plate with HuMedia-EG2 medium (Kurabo Inc.) to which 2% (vol/vol) fetal bovine serum, 50 μg/ml gentamicin, 50 ng/ml amphotericin B, 10 ng/ml hEGF, 5 ng/ml hFGF-B, 1 μg/ml hydrocortisone and 10 μg/ml heparin were added. Subsequently, each test substance (pitavastatin, fluvastatin and pravastatin) was added to the medium at a final concentration of 10^−7 M to 10^−3 M, and incubated for 24 hours with 5% CO2 at 37° C. After the incubation, the cells were washed 3 times with a phosphate buffer solution (pH 7.4), and suspended in 50 mmol/L Tris-HCl (pH 7.4) that contained 0.15 mol/L NaCl, 0.5% Triton X-100 and 1 mmol/L benzamide hydrchloride, then, TM was extracted. The levels of TM antigen were measured by enzyme immunoassay using the monoclonal antibodies TMmAb 2, 11 and 20. In the case where the value of the control (containing an equivalent weight of DMSO (0.01%)) is assigned to 100%, the effects on the TM antigen levels existing in the cellular proteins due to the addition of each test substance were measured.

O=C(O)C[C@H](O)C[C@H](O)/C=C/c1c(C2CC2)nc2ccccc2c1-c1ccc(F)cc1 [pitavastatin, (+)-(3R, 5S, 6E)-7-[2-cyclopropyl-4-(4-fluorophenyl)-3-quinolyl]-3,5-dihydroxy-6-heptenoic acid]
ratio of the TM expression level (TM m-RNA) to the control, time course [1]: increased drastically after 12 hours | ratio of the TM antigen level/cellular protein to the control [2]: significant increase level

Source: US20080275081A1, “Novel thrombomodulin expression promoters” (Kowa Company, Ltd., priority 2002, published 2008)
